Measurements as given in patent US4711883A, “Substituted 3-(4-phenyl-1-piperazinyl)alkylquinazolin-2,4-(1H,3H) diones, methods of preparation, compositions and method of use” (Ortho Pharmaceutical Corporation, priority 1985, dated 1987).
Counter-ions that a name gives are not always drawn. Like-named read-outs stand apart in the source and are kept apart here.

How the values were obtained:
[1] = system: spontaneously hypertensive rats (SHR); test: antihypertensive evaluation, systolic blood pressure, single oral dose, conscious SHR (tail cuff); type: in vivo
Experimental: (§1) The percent recovery is calculated by dividing the maximum decrease in mean arterial blood pressure (mm Hg) caused by tilt into the amount of rise in blood pressure at 15 seconds after initiating tilt. The antihypertensive as well as teh alpha1 -adrenergic blocking properties of the novel quinazolinedione piperazines were evaluated and set forth in Table 2.
The antihypertensive evaluation followed the following procedure:
Adult male spontaneously hypertensive rats (SHR) were placed in restrainers in a chamber warmed to 32° C. A standard indirect method employing a pneumatic pulse transducer and inflatable tail cuff was used to measure systolic blood pressure (SBP) in the conscious state. After baseline SBP were recorded, groups of 4 SHR received a single oral dose of drug or vehicle (0.5% methylcellulose) administered with a gavage tube. SBP's were obtained at 1/2, 1, 2, 3 and 4 hours post treatment. Changes in SBP's were statistically compared to the vehicle effect using Students t test, at p ε0.05.

α1 -adrenergic = α1 -adrenergic blockade: inhibition of phenylephrine-induced increases in diastolic blood pressure in the anesthetized dog; type: in vivo; conditions: for Percent Inhibition of Phenylephrin-Induced Pressor Responses: dog
Experimental: The α1 -adrenergic blockade: inhibition of phenylephrine-inducedincreases in diastolic blood pressure in the anesthetized dog was determined according to the method set forth in the following literature reference:
Arunlakshana, O, and Schild, H. O. (1959). Some Quantitative Uses of Drug Antagonists. Br. J. Pharmac. Chemother., 14:48-58.
The procedure is as follows:
Dogs are anesthetized and bilaterally vagotomized. A femoral artery and vein are cannulated for detection of diastolic blood pressure and drug administration, respectively. Percent inhibition of alpha adrenergic receptor antagonism is quantitiated by determining the dose-response (increase in diastolic pressure) relationship of phenylephrine before and after various doses of the antagonist. Statistical analysis of percent inhibition is calculated by use of the variance component estimation test. In addition, the Dose Ratio (DR20) may be calculated for potency comparisons and is defined as the dose of antagonist required to produce an agonist dose ratio of 20.

[2] = system: tilt reflex recovery response; design: species or system mongrel dogs; conditions: dog, in vivo
Experimental: as §1, with “The tilt reflex recovery response is determined as follows: Adult mongrel dogs of either sex are anesthetized with pentobarbital sodium, secured to a tilt table and surgically prepared for measurement of blood pressure and heart rate. Animals are tilted and the percent recovery of the tilt response in the blood pressure is quantitated. The percent” for “The percent”

[3] = system: spontaneously hypertensive rats; test: bioavailability comparison, MABP in conscious cannulated SHR (i.v. and oral); type: in vivo, spontaneously hypertensive rats (SHR); conditions: for ED10: Rattus norvegicus
Experimental: (§2) The bioavailability comparison was determined in conscious direct cannulated spontaneously hypertensive rats. Briefly, the SHRs were anesthetized with ether and a carotid arterial catheter was inserted for measurement of arterial blood pressure while a jugular catheter was inserted for i.v. drug administration. For oral dosing, a catheter was also passed via the esophagus into the stomach. All catheters were exteriorized at the nape of the neck and animals were placed in restrainers and allowed to recover from surgery. Blood pressure was continuously recorded. Drugs were dissolved in 5% dextrose in water and administered as a bolus at time zero. Bioavailability results are presented in Table 3. | (a) I.V. bolus dose that lowers MABP in conscious SHR by 10%. | (b) Oral gavage dose that lowers MABP in conscious cannulated SHR by 10%. | (c) Bioavailability ratio with small numbers (close to unity) indicating | good bioavailability.

[4] = as above; type: in vivo, spontaneously hypertensive rats (SHR); conditions: rat, in vivo; SHR; small numbers (close to unity) indicate good bioavailability; read-out: Ratio P.O./I.V. (bioavailability ratio)
Experimental: as §2

histamine = test: autonomic tests: histamine blood pressure responses; type: in vivo; conditions: dogs
acetylcholine = test: autonomic tests: acetylcholine blood pressure responses; type: in vivo; conditions: dogs
[5] = iv, conscious SHR, I.V. bolus, read-out: I.V. E.D.-10% (I.V. bolus dose that lowers MABP by 10%)
[6] = conscious cannulated SHR, oral gavage, read-out: P.O. E.D.-10% (oral gavage dose that lowers MABP by 10%)

| Structure (SMILES) | Peak Change in Systolic Blood Pressure ([1]; 0.5 mg/kg PO) | inhibition of the tilt reflex recovery response [2] | ED10 [3, 5] | ED10 [3, 6] | selectivity ratio [4] | Peak Change in Systolic Blood Pressure ([1]; 0.1 mg/kg PO) | antihistaminic effect (inhibition of histamine blood pressure responses) (histamine) | anticholinergic effect (inhibition of acetylcholine blood pressure responses) (acetylcholine) | other results |
| --- | --- | --- | --- | --- | --- | --- | --- | --- | --- |
| COc1ccccc1N1CCN(CCn2c(=O)[nH]c3c(Cl)cc(OC)c(OC)c3c2=O)CC1 [B, 8-chloro-3-{2-[4-(2-methoxyphenyl)-1-piperazinyl]ethyl}-5,6-dimethoxyquinazolin-2,4-(1H,3H)-dione] |  |  |  |  |  |  |  |  | Peak Change in Systolic Blood Pressure ([1]; 10 mg/kg PO): -72 mm Hg; Percent Inhibition of Phenylephrin-Induced Pressor Responses (α1 -adrenergic; 0.03 mg/kg IV): 60%; Percent Inhibition of Phenylephrin-Induced Pressor Responses (α1 -adrenergic; 0.2 mg/kg IV): 93% |
| COc1cc2[nH]c(=O)n(CCN3CCN(c4ccccc4OC)CC3)c(=O)c2cc1OC [C, 6,7-dimethoxy-3-{2-[4-(2-methoxyphenyl)-1-piperazinyl]ethyl}-quinazolin-2,4-(1H,3H)dione] | -69 mm Hg |  |  |  |  |  |  |  | Percent Inhibition of Phenylephrin-Induced Pressor Responses (α1 -adrenergic; 0.1 mg/kg IV): 95% |
| COc1ccccc1N1CCN(CCn2c(=O)[nH]c3ccc(OC)c(OC)c3c2=O)CC1 [Compound A, 3-{2-[4-(2-Methoxyphenyl)-1-piperazinyl]ethyl}-5,6-dimethoxyquinazolin-2,4-(1H,3H)dione monohydrobromide] | -85 mm Hg | 37%±12 | 1.8 mg/kg | 70 mg/kg | 38.9 | -58 mm Hg | almost no antihistaminic or anticholinergic effect | almost no antihistaminic or anticholinergic effect | bioavailability profile (in words) ([3]; oral/i.v. ratios compared with prior art): unexpected superior bioavailability; oral hypotensive / antihypertensive activity (in words) ([1]; oral): orally effective antihypertensive profile; DR20 (dose of antagonist required to produce an agonist dose ratio of 20) (α1 -adrenergic; anesthetized dog, IV, phenylephrine): 0.0203 mg/kg; Percent Inhibition of Phenylephrin-Induced Pressor Responses (α1 -adrenergic; 0.0203 (DR20) mg/kg IV): 100% |
| COc1ccccc1N1CCN(CCn2c(=O)[nH]c3ccccc3c2=O)CC1 [Compound Z, reference compound] |  | 83%±8 | 0.5 mg/kg | 370 mg/kg | 740 | -40 mm Hg | inhibits histamine and acetylcholine blood pressure responses | inhibits histamine and acetylcholine blood pressure responses | Percent Inhibition of Phenylephrin-Induced Pressor Responses (α1 -adrenergic; 0.010 mg/kg IV): 100% |
| Br.COc1ccccc1N1CCN(CCn2c(=O)[nH]c3ccc(O)c(O)c3c2=O)CC1.O [D, 5,6-Dihydroxy-3-{2-[4-(2-methoxyphenyl)-1-piperazinyl]ethyl}-quinazolin-2,4(1H,3H)-dione monohydrobromide monohydrate] |  |  |  |  |  | -60 mm Hg |  |  | Peak Change in Systolic Blood Pressure ([1]; 0.05 mg/kg PO): -58 mm Hg; Percent Inhibition of Phenylephrin-Induced Pressor Responses (α1 -adrenergic; 0.0303 mg/kg IV): 89% |
| COc1ccc(N2CCN(CCn3c(=O)[nH]c4ccc(OC)c(OC)c4c3=O)CC2)cc1 [E] |  |  |  |  |  |  |  |  | Peak Change in Systolic Blood Pressure ([1]; 20 mg/kg PO): -50 mm Hg; Percent Inhibition of Phenylephrin-Induced Pressor Responses (α1 -adrenergic; 1.0 mg/kg IV): 80% |
